Measurements: doi:10.1101/2020.06.11.145995v1 (biorxiv, 2020)
Like-named read-outs stand apart in the source and are kept apart here. Blank lines part the entries; values can stand above or below the compound they belong to.

Tests used:
Assay in all cases: biochemical
ANKK1 = ANKK1 (Homo sapiens, UniProt Q8NFD2)
ASK1 = ASK1 (Homo sapiens, UniProt Q99683)
AXL = AXL (Homo sapiens, UniProt P30530)
BRAF = BRAF (Homo sapiens, UniProt P15056)
BRAF(V600E) = BRAF(V600E) (Homo sapiens, UniProt P15056, V600E)
BRSK2 = BRSK2 (Homo sapiens, UniProt Q8IWQ3)
Sequence of BRSK2 (Q8IWQ3 whole entry): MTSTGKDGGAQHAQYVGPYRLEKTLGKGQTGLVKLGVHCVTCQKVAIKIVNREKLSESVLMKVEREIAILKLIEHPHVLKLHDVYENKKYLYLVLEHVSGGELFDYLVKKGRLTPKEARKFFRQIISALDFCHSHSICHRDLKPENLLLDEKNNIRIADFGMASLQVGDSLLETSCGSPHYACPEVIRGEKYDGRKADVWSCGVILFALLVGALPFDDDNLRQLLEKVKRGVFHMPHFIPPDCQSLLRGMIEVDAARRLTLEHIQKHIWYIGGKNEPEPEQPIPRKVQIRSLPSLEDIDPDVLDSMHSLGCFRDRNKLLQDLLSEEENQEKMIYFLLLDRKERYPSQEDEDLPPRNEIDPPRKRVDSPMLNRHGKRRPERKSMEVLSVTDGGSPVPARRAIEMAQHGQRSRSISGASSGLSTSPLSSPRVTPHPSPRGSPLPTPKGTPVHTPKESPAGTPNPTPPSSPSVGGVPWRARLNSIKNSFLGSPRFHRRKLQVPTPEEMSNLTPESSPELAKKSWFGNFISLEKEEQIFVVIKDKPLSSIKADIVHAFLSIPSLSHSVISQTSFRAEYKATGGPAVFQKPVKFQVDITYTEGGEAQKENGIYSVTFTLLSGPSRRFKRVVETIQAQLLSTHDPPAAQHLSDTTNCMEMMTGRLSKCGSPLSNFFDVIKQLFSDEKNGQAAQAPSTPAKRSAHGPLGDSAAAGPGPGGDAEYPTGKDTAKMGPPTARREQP

BTK = BTK (Homo sapiens, UniProt Q06187)
Sequence of BTK (Q06187 whole entry): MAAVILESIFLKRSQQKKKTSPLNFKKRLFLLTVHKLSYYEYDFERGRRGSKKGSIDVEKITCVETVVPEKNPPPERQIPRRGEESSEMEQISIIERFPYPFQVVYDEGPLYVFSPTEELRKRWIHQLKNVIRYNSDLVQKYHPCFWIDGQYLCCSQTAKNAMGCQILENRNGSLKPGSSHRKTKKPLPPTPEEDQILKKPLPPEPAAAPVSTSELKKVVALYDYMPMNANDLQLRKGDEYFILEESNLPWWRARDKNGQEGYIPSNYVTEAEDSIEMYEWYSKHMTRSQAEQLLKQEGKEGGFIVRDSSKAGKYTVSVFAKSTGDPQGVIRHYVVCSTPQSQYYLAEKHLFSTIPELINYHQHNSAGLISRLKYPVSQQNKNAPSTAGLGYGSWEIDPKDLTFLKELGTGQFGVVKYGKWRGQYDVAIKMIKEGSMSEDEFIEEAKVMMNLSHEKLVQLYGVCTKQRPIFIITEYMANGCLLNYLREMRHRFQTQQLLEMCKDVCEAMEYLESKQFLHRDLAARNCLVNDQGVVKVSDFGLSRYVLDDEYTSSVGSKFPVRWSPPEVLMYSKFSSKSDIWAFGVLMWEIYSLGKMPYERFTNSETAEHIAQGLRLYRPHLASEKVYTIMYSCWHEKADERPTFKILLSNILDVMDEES

CAMK1 = CAMK1 (Homo sapiens, UniProt Q14012)
CDC2L1 = CDC2L1 (Homo sapiens, UniProt P21127)
CDK5 = CDK5 (Homo sapiens, UniProt Q00535)
Sequence of CDK5 (Q00535 whole entry): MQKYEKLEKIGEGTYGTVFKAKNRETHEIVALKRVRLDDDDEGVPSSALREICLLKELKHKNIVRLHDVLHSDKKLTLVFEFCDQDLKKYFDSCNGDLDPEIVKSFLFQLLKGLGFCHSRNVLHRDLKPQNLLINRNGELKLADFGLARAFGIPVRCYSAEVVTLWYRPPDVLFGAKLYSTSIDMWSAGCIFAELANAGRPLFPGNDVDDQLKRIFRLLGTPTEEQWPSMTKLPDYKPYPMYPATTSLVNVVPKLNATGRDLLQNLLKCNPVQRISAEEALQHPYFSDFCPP

CDK7 = CDK7 (Homo sapiens, UniProt P50613)
CSNK1A1 = CSNK1A1 (Homo sapiens, UniProt P48729)
CSNK1A1L = CSNK1A1L (Homo sapiens, UniProt Q8N752)
CSNK1G1 = CSNK1G1 (Homo sapiens, UniProt Q9HCP0)
CSNK1G2 = CSNK1G2 (Homo sapiens, UniProt P78368)
CTK = CTK (Homo sapiens, UniProt P42679)
DYRK2 = DYRK2 (Homo sapiens, UniProt Q92630)
ERN1 = ERN1 (Homo sapiens, UniProt O75460)
FLT3 = FLT3 (Homo sapiens, UniProt P36888)
Sequence of FLT3 (P36888 whole entry): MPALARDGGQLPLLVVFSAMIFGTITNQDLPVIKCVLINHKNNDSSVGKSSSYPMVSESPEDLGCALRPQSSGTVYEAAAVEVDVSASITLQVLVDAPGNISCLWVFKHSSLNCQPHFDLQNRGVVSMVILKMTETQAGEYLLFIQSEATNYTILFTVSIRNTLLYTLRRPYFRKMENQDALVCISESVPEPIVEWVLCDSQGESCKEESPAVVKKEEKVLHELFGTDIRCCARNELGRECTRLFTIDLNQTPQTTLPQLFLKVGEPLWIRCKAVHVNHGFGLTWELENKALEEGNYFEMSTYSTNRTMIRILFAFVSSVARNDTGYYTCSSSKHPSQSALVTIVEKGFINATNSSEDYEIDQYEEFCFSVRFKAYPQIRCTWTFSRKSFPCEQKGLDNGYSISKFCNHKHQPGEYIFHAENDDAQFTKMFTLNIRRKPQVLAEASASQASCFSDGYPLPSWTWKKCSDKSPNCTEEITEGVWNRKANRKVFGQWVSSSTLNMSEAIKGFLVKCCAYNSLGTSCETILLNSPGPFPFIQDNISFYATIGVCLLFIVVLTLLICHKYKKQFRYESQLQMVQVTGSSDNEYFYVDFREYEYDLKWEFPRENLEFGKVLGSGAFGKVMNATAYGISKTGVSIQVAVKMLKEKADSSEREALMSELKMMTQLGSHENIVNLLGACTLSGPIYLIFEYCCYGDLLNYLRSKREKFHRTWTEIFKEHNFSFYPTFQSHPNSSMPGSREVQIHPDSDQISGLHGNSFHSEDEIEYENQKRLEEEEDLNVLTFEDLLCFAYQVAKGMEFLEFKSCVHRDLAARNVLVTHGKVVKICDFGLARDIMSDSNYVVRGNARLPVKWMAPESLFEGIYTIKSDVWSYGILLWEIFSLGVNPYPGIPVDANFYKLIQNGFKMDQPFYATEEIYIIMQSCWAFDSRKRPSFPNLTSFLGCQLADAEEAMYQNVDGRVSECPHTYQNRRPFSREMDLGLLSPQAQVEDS

IKK-alpha = IKK-alpha (Homo sapiens, UniProt O15111)
Sequence of IKK-alpha (O15111 whole entry): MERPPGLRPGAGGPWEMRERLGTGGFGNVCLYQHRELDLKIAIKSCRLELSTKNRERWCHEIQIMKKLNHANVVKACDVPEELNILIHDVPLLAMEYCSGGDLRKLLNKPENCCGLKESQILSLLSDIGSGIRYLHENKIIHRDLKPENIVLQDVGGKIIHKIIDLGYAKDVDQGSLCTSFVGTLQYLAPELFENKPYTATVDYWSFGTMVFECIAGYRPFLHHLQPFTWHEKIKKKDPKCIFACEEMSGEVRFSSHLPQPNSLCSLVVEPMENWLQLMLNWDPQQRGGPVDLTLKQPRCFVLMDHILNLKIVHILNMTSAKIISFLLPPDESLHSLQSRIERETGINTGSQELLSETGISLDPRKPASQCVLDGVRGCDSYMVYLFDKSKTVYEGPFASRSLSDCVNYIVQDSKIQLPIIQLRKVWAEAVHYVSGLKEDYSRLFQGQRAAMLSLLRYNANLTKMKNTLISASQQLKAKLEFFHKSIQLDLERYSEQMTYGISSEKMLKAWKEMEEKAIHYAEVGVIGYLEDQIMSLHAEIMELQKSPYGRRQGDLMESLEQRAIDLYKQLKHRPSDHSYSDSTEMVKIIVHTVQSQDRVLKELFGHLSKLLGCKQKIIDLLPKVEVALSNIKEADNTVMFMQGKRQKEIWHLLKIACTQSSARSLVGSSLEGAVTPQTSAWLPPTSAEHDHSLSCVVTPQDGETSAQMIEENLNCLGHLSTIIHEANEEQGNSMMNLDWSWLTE

INSR = INSR (Homo sapiens, UniProt P06213)
IRAK4 = IRAK4 (Homo sapiens, UniProt Q9NWZ3)
KIT(A829P) = KIT(A829P) (Homo sapiens, UniProt P10721, A829P)
KIT(V559D) = KIT(V559D) (Homo sapiens, UniProt P10721, V559D)
LATS1 = LATS1 (Homo sapiens, UniProt O95835)
LCK = LCK (Homo sapiens, UniProt P06239)
MAP3K4 = MAP3K4 (Homo sapiens, UniProt Q9Y6R4)
MAPKAPK2 = MAPKAPK2 (Homo sapiens, UniProt P49137)
Sequence of MAPKAPK2 (P49137 whole entry): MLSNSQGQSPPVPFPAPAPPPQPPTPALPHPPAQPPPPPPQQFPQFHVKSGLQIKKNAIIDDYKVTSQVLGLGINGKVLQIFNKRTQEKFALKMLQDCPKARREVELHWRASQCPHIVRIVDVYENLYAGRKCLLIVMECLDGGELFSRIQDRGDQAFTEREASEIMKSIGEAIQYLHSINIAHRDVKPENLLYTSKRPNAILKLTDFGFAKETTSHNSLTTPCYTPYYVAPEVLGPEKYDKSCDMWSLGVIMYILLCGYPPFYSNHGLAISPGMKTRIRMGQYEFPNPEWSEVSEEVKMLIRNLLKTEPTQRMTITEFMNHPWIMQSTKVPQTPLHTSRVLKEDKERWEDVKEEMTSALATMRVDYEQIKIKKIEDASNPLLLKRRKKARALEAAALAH

MEK5 = MEK5 (Homo sapiens, UniProt Q13163)
MERTK = MERTK (Homo sapiens, UniProt Q12866)
[1] = read-out: CPT-1-70-1 (1uM) % control
[2] = read-out: HYJ-2-002-1 (1uM) % control

Sequence of AXL (P30530 whole entry): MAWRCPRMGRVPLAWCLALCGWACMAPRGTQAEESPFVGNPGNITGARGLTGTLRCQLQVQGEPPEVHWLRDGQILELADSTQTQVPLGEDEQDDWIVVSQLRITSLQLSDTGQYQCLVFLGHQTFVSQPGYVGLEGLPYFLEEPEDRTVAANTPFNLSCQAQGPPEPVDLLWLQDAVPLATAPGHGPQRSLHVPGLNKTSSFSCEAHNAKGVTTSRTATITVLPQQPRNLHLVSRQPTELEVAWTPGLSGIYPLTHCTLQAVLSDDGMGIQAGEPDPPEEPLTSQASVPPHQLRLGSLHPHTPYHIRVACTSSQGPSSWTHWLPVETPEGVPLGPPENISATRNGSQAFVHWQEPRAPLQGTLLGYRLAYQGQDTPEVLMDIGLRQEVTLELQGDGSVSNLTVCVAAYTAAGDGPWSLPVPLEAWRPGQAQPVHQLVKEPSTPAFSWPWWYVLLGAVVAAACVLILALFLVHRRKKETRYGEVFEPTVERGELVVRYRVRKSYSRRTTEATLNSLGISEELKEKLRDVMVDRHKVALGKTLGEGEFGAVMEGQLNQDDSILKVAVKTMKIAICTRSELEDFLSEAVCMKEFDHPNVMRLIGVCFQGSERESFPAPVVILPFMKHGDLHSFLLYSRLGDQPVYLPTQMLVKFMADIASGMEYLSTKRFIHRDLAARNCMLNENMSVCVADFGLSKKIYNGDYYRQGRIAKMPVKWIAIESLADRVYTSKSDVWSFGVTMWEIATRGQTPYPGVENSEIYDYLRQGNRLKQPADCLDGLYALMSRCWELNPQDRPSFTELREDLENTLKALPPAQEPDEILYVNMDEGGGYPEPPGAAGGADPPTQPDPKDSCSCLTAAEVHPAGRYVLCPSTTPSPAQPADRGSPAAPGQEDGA

Compound: CN1CCN(c2ccc(Nc3nc(Oc4ccc(NC(=O)CCl)cc4)c4cc[nH]c4n3)cc2)CC1 [CPT1-70-1]
remaining activity at 1 µM (ANKK1; [1]): 93%
remaining activity at 1 µM (ASK1; [1]): 100%
remaining activity at 1 µM (AXL; [1]): 4.8%
remaining activity at 1 µM (BRAF; [1]): 87%
remaining activity at 1 µM (BRAF(V600E); [1]): 100%
remaining activity at 1 µM (BRSK2; [1]): 97%
remaining activity at 1 µM (BTK; [1]): 7%
remaining activity at 1 µM (CAMK1; [1]): 57%
remaining activity at 1 µM (CDC2L1; [1]): 100%
remaining activity at 1 µM (CDK5; [1]): 100%
remaining activity at 1 µM (CDK7; [1]): 100%
remaining activity at 1 µM (CSNK1A1; [1]): 55%
remaining activity at 1 µM (CSNK1A1L; [1]): 80%
remaining activity at 1 µM (CSNK1G1; [1]): 18%
remaining activity at 1 µM (CSNK1G2; [1]): 0.7%
remaining activity at 1 µM (CTK; [1]): 100%
remaining activity at 1 µM (DYRK2; [1]): 100%
remaining activity at 1 µM (ERN1; [1]): 69%
remaining activity at 1 µM (FLT3; [1]): 3%
remaining activity at 1 µM (IKK-alpha; [1]): 85%
remaining activity at 1 µM (INSR; [1]): 17%
remaining activity at 1 µM (IRAK4; [1]): 94%
remaining activity at 1 µM (KIT(A829P); [1]): 75%
remaining activity at 1 µM (KIT(V559D); [1]): 15%
remaining activity at 1 µM (LATS1; [1]): 77%
remaining activity at 1 µM (LCK; [1]): 32%
remaining activity at 1 µM (MAP3K4; [1]): 66%
remaining activity at 1 µM (MAPKAPK2; [1]): 100%
remaining activity at 1 µM (MEK5; [1]): 18%
remaining activity at 1 µM (MERTK; [1]): 70%

remaining activity at 1 µM (ANKK1; [2]): 9.4%
remaining activity at 1 µM (ASK1; [2]): 96%
remaining activity at 1 µM (AXL; [2]): 21%
remaining activity at 1 µM (BRAF; [2]): 3.7%
remaining activity at 1 µM (BRAF(V600E); [2]): 1.2%
remaining activity at 1 µM (BRSK2; [2]): 91%
remaining activity at 1 µM (BTK; [2]): 8.1%
remaining activity at 1 µM (CAMK1; [2]): 80%
remaining activity at 1 µM (CDC2L1; [2]): 88%
remaining activity at 1 µM (CDK5; [2]): 100%
remaining activity at 1 µM (CDK7; [2]): 44%
remaining activity at 1 µM (CSNK1A1; [2]): 100%
remaining activity at 1 µM (CSNK1A1L; [2]): 100%
remaining activity at 1 µM (CSNK1G1; [2]): 93%
remaining activity at 1 µM (CSNK1G2; [2]): 45%
remaining activity at 1 µM (CTK; [2]): 91%
remaining activity at 1 µM (DYRK2; [2]): 96%
remaining activity at 1 µM (ERN1; [2]): 100%
remaining activity at 1 µM (FLT3; [2]): 0.5%
remaining activity at 1 µM (IKK-alpha; [2]): 0.2%
remaining activity at 1 µM (INSR; [2]): 92%
remaining activity at 1 µM (IRAK4; [2]): 94%
remaining activity at 1 µM (KIT(A829P); [2]): 61%
remaining activity at 1 µM (KIT(V559D); [2]): 0%
remaining activity at 1 µM (LATS1; [2]): 100%
remaining activity at 1 µM (LCK; [2]): 1.1%
remaining activity at 1 µM (MAP3K4; [2]): 100%
remaining activity at 1 µM (MAPKAPK2; [2]): 100%
remaining activity at 1 µM (MEK5; [2]): 0.85%
remaining activity at 1 µM (MERTK; [2]): 30%
Compound: CCN1CCN(Cc2ccc(NC(=O)c3ccc(C)c(CCc4cnc5[nH]ccc5c4OC)c3)cc2C(F)(F)F)CC1 [HYJ-2-002-1]
